Data published in paper PMC12348107, “Saponins from Oxybasis rubra (L.) S.Fuentes, Uotila & Borsh: Comparative Assessment of Cytotoxic Potential Against a Wide Panel of Cancer Cell Lines” (Molecules, 2025).
Where “and” joins values, the source holds several entries; their conditions need not be identical. Identical values can stand only once. Like-named read-outs stand apart in the source and are kept apart here. Marks after values point to notes of the source that are not given here.

What was measured:
[1] = system: Caco-2 colon adenocarcinoma cells; experiment: LDH cytotoxicity assay, Caco-2; type: cell-based; conditions: Homo sapiens, LDH test, read-out: Cytotoxic activity expressed as IC50
Method: (§1) The cytotoxic activity was tested on human cancer and normal cell lines, grouped in several panels: skin (malignant melanoma HTB-140, malignant melanoma A375, melanoma WM793, and normal keratinocytes HaCaT), prostate (prostate carcinoma DU-145, prostate carcinoma PC3, and prostate epithelial cells PNT2), thyroid (thyroid carcinoma FTC133, thyroid carcinoma, undifferentiated 8505C), gastrointestinal panel (hepatocellular carcinoma HepG2, colon adenocarcinoma Caco-2, and colon adenocarcinoma HT29), and single line of lung carcinoma A549. Cells were grown at standard conditions (37 °C, 5% CO2, relative humidity) and culture media (DMEM/F12 for PNT2, WM793, HT29, A549; DMEM Low Glucose for DU-145; DMEM High Glucose for A375, HaCaT, A549; MEM with NEAA for Caco-2), supplemented with 10% fetal bovine serum (FBS) and 1% antibiotic solution (10,000 U penicillin and 10 mg streptomycin/mL). All cell lines, cell culture media, and supplements were from Merck (Seelze, Germany).
(§2) Before the experiment, cells were seeded onto 96-well plates for 24 h, at a density of 1.5 × 10^4 cells/ well. Then the tested compounds (5–100 μg/mL) were added and incubated for 24 and 48 h. Cell viability was measured with the lactate dehydrogenase (LDH) assay by Clontech (Clontech, Mountain View, CA, USA), as described previously. The absorbance was measured at 490 nm using a Biotek Synergy microplate reader (BioTek Instruments Inc., Winooski, VT, USA). Cell viability was expressed as a percentage of dead cells. Each experiment was conducted in triplicate. Doxorubicin was used as a reference cytostatic.
(§3) The results were expressed as mean (±SD). Data were analyzed using Statistica v.13.3 (StatSoft, Tulsa, OK, USA). The IC50 values were calculated using OriginPro 2020b (64-bit) 9.7.5.184 (Academic) (OriginLab Corporation, Northampton, MA, USA). One-way analysis of variance (ANOVA) and the post-hoc Tukey multiple comparison test were used. The statistical significance was defined at the probability level of p < 0.05. Principal component analysis (PCA) and hierarchical cluster analysis (HCA) were performed using Statistica v.13.3 (StatSoft, Tulsa, OK, USA). Prior to PCA, the Bartlett’s sphericity test was conducted, and the Kaiser-Meyer-Olkin Measure of Sampling Adequacy index (KMO) was examined. In the simple model, for each compound tested (1–4), the cell lines were the cases, and the different concentrations of the compound were the parameters. This was followed by a PCA model in which the cell lines were the parameters, and the compounds (at different concentrations) were the cases. All PCA models were based on a correlation matrix. Hierarchical cluster analysis (CA) based on standardized data was performed using Ward’s method and Euclidean distance. The results were grouped based on Mojena’s rule.

[2] = system: HT29 colon adenocarcinoma cells; experiment: LDH cytotoxicity assay, HT29; type: cell-based; conditions: Homo sapiens, HT-29, LDH test, read-out: Cytotoxic activity expressed as IC50
Method: as §1, §2, §3

[3] = system: human cancer and normal cell lines; experiment: Cytotoxicity screening across the whole cell line panel; type: cell-based; conditions: all cell lines tested, 5–100 μg/mL, 24 and 48 h
Method: The cytotoxic activity was tested on human cancer and normal cell lines, grouped in several panels: skin (malignant melanoma HTB-140, malignant melanoma A375, melanoma WM793, and normal keratinocytes HaCaT), prostate (prostate carcinoma DU-145, prostate carcinoma PC3, and prostate epithelial cells PNT2), thyroid (thyroid carcinoma FTC133, thyroid carcinoma, undifferentiated 8505C), gastrointestinal panel (hepatocellular carcinoma HepG2, colon adenocarcinoma Caco-2, and colon adenocarcinoma HT29), and single line of lung carcinoma A549. […]
Before the experiment, cells were seeded onto 96-well plates for 24 h, at a density of 1.5 × 10^4 cells/ well. […] Cell viability was measured with the lactate dehydrogenase (LDH) assay by Clontech (Clontech, Mountain View, CA, USA), as described previously. The absorbance was measured at 490 nm using a Biotek Synergy microplate reader (BioTek Instruments Inc., Winooski, VT, USA). Cell viability was expressed as a percentage of dead cells. […]
The results were expressed as mean (±SD). Data were analyzed using Statistica v.13.3 (StatSoft, Tulsa, OK, USA). The IC50 values were calculated using OriginPro 2020b (64-bit) 9.7.5.184 (Academic) (OriginLab Corporation, Northampton, MA, USA). […]

[4] = system: WM793 primary melanoma cells; experiment: LDH cytotoxicity assay, WM793; type: cell-based; conditions: Homo sapiens, LDH test, read-out: Cytotoxic activity expressed as IC50
Method: as §1, §2, §3

[5] = system: 8505C undifferentiated thyroid carcinoma cells; experiment: LDH cytotoxicity assay, 8505C; type: cell-based; conditions: Homo sapiens, LDH test, read-out: Cytotoxic activity expressed as IC50
Method: as §1, §2, §3

[6] = system: PC3 metastatic prostate carcinoma cells; experiment: LDH cytotoxicity assay, PC3; type: cell-based; conditions: Homo sapiens, LDH test, read-out: Cytotoxic activity expressed as IC50
Method: as §1, §2, §3

[7] = LDH cytotoxicity assay, HaCaT; type: cell-based, human; conditions: human, HaCaT normal keratinocytes, HaCaT normal cells, LDH test, read-out: Cytotoxic activity expressed as IC50; for IC50 at 24 h: 24 h incubation; for IC50 at 48 h: 48 h incubation
Method: as §1, §2, §3

[8] = system: HTB-140 malignant melanoma cells; experiment: LDH cytotoxicity assay, HTB-140; type: cell-based; conditions: Homo sapiens, LDH test, read-out: Cytotoxic activity expressed as IC50
Method: as §1, §2, §3

[9] = LDH cytotoxicity assay, PNT2; type: cell-based, human; conditions: human, PNT2 prostate epithelial cells (normal), PNT2 normal cells, LDH test, read-out: Cytotoxic activity expressed as IC50; for IC50 at 24 h: 24 h incubation; for IC50 at 48 h: 48 h incubation
Method: as §1, §2, §3

[10] = system: DU-145 metastatic prostate carcinoma cells; experiment: LDH cytotoxicity assay, DU-145; type: cell-based, human; conditions: for IC50: Homo sapiens, LDH test, read-out: Cytotoxic activity expressed as IC50
Method: as §1, §2, §3

[11] = system: A549 lung carcinoma cells; experiment: LDH cytotoxicity assay, A549; type: cell-based, human; conditions: LDH test; for IC50: Homo sapiens, read-out: Cytotoxic activity expressed as IC50
Method: as §1, §2, §3

[12] = system: FTC133 follicular thyroid carcinoma cells; experiment: LDH cytotoxicity assay, FTC133; type: cell-based; conditions: Homo sapiens, FTC-133, LDH test, read-out: Cytotoxic activity expressed as IC50
Method: as §1, §2, §3

[13] = system: A375 malignant melanoma cells; experiment: LDH cytotoxicity assay, A375; type: cell-based; conditions: Homo sapiens, A-375, LDH test, read-out: Cytotoxic activity expressed as IC50
Method: as §1, §2, §3

[14] = system: HepG2 hepatocellular carcinoma cells; experiment: LDH cytotoxicity assay, HepG2; type: cell-based; conditions: Homo sapiens, LDH test, read-out: Cytotoxic activity expressed as IC50
Method: as §1, §2, §3

[15] = system: HaCaT normal keratinocytes; experiment: LDH cytotoxicity assay, HaCaT; type: cell-based, human; conditions: HaCaT normal cells, 48 h incubation, LDH test
Method: as §1, §2, §3

[16] = system: PNT2 prostate epithelial cells; experiment: LDH cytotoxicity assay, PNT2; type: cell-based, human; conditions: normal prostate epithelial cells
Method: as §1, §2, §3

[17] = A549, 24 h, A549, 24 h incubation
[18] = A549, 48 h, A549, 48 h incubation

| SMILES | IC50 ([1]; Caco-2, 24 h incubation) | IC50 ([1]; Caco-2, 48 h incubation) | IC50 ([2]; HT29, 24 h incubation) | IC50 ([2]; HT29, 48 h incubation) | IC50 ([4]; WM793, 24 h incubation) | IC50 ([4]; WM793, 48 h incubation) | IC50 ([5]; 24 h incubation) | IC50 ([5]; 48 h incubation) | IC50 ([6]; PC3, 24 h incubation) | IC50 ([6]; PC3, 48 h incubation) | IC50 at 24 h [7] | IC50 at 48 h [7] | IC50 ([8]; HTB-140, 24 h incubation) | IC50 ([8]; HTB-140, 48 h incubation) | IC50 at 24 h [9] | IC50 at 48 h [9] | IC50 ([10]; DU-145, 24 h incubation) | IC50 ([10]; DU-145, 48 h incubation) | IC50 [11, 17] | IC50 [11, 18] | further results |
| --- | --- | --- | --- | --- | --- | --- | --- | --- | --- | --- | --- | --- | --- | --- | --- | --- | --- | --- | --- | --- | --- |
| CC1(C)CC[C@]2(C(=O)O)CC[C@]3(C)C(=CC[C@@H]4[C@@]5(C)CC[C@H](O[C@@H]6O[C@H](CO)[C@@H](O)[C@H](O[C@@H]7O[C@H](CO)[C@@H](O)[C@H](O)[C@H]7O)[C@H]6O)[C@@](C)(CO)[C@@H]5CC[C@]43C)[C@@H]2C1 [Compound 1] | 27.1 µM and 21.6 µg/mL | 24.2 µM and 19.3 µg/mL | 35.7 µM and 28.4 µg/mL | 31.4 µM and 25 µg/mL | 34.6 µM and 27.6 µg/mL | 21.6 µM and 17.2 µg/mL | 45.1 µM and 35.9 µg/mL | 32.4 µM and 25.8 µg/mL | 73.6 µM and 58.6 µg/mL | 44.2 µM and 35.2 µg/mL | 50.8 µM and 40.4 µg/mL | 33.9 µM and 27 µg/mL | 33 µM and 26.2 µg/mL | 22.8 µM and 18.2 µg/mL | 51.1 µM and 40.7 µg/mL | 42.8 µM and 34.1 µg/mL | 20.7 µM and 16.5 µg/mL | 14.7 µM and 11.7 µg/mL | 18.7 µM and 14.9 µg/mL | 14.8 µM and 11.8 µg/mL | Overall cytotoxic activity across the panel, in words [3]: exhibited activity against all cell lines tested; IC50 ([12]; FTC133, 24 h incubation): 30.8 µM and 24.5 µg/mL; IC50 ([12]; FTC133, 48 h incubation): 17.1 µM and 13.6 µg/mL; IC50 ([13]; A375, 24 h incubation): 22.6 µM and 18 µg/mL; IC50 ([13]; A375, 48 h incubation): 16 µM and 12.7 µg/mL; IC50 ([14]; HepG2, 24 h incubation): 16.6 µM and 13.2 µg/mL; IC50 ([14]; HepG2, 48 h incubation): 13.6 µM and 10.8 µg/mL |
| CC1(C)CC[C@]2(C(=O)O[C@@H]3O[C@H](CO)[C@@H](O)[C@H](O)[C@H]3O)CC[C@]3(C)C(=CC[C@@H]4[C@@]5(C)CC[C@H](O[C@@H]6O[C@H](CO)[C@@H](O)[C@H](O[C@@H]7O[C@H](CO)[C@@H](O)[C@H](O)[C@H]7O)[C@H]6O)[C@@](C)(CO)[C@@H]5CC[C@]43C)[C@@H]2C1 [Compound 2] | > 100 µg/mL | 38.4 µM and 36.8 µg/mL | > 100 µg/mL | 66.5 µM and 63.8 µg/mL | 14.4 µM and 13.8 µg/mL | 6.79 µM and 6.52 µg/mL | > 100 µg/mL | > 100 µg/mL | > 100 µg/mL | 69.8 µM and 67 µg/mL | 46.8 µM and 44.9 µg/mL | 41.6 µM and 39.9 µg/mL | > 100 µg/mL | > 100 µg/mL | > 100 µg/mL | > 100 µg/mL | 33.3 µM and 32 µg/mL | 22 µM and 21.1 µg/mL | 13.8 µM and 13.2 µg/mL | 8.58 µM and 8.24 µg/mL | Cytotoxic activity expressed as IC50 [15]: 39.93 ± 0.52 ^b µg/mL; IC50 ([16]; Homo sapiens, PNT2, incubation time not given, read-out: IC50 against normal prostate epithelial cells): > 100 µg/mL; Toxicity to normal prostate epithelial cells, in words [16]: non-toxic; Toxicity against DU-145, in words ([10]; DU-145): moderate toxicity; Cytotoxic activity expressed as IC50 ([11]; A549, 48 h incubation): 8.23 ± 0.29 ^a µg/mL; IC50 ([12]; FTC133, 24 h incubation): 42.9 µM and 41.1 µg/mL; IC50 ([12]; FTC133, 48 h incubation): 23.5 µM and 22.5 µg/mL; IC50 ([13]; A375, 24 h incubation): 33.9 µM and 32.5 µg/mL; IC50 ([13]; A375, 48 h incubation): 31.4 µM and 30.1 µg/mL; IC50 ([14]; HepG2, 24 h incubation): 98 µM and 94 µg/mL; IC50 ([14]; HepG2, 48 h incubation): 63 µM and 60.5 µg/mL |
